Data set [1] concerns occludin. Nature of the data set: TJ-related protein occludin in NHEK cells (Western). The format is cell-based, human. Conditions: 1 mM, 3 days, CaCl2 positive control = 100%, no addition 63%. As to the method: (§1) The following experiment was conducted to examine the effect of ascorbic acid 2-glucoside on the production of TJ-related proteins that constitute cell-cell adhesion structures by focusing on occludin and ZO-1 that are focused on as TJ-related proteins known to exist in a granular layer of epidermis: As a model for typical normal human epidermal cells, NHEK cells were suspended in EpiLife medium (pH 7.4); inoculated to 12-well microplates at a cell density of 1×10^5 cells/well; cultured overnight under the conditions of 37° C. and 5% v/v CO2; and further cultured for three days under the conditions of 37° C. and 5% v/v CO2 after adding either CaCl2 as a positive control to each well to give a final concentration of 0.5 mM, or “AA2G”, a product name of a particulate composition containing anhydrous crystalline ascorbic acid 2-glucoside, commercialized by Hayashibara Co., Ltd., Okayama, Japan, to give a final concentration of 0.5 or 1 mM. […] A sample of 20 μg protein for each lane per each cell extract in respective wells was applied to sodium dodecyl sulfate polyacrylamide gel electrophoresis (SDS-PAGE) with 10% w/v SDS containing DTT, followed by assaying the concentration of occludin or ZO-1 in each cell extract with “Luminate Western HRP Substrates”, a product name of a premixed, ready-to-use chemiluminescent detection reagent using an internal standard “α-Tubulin”, commercialized by Merck KGaA, Darmstadt, Germany, wherein there were used “F-11”, a product name of an anti-occludin mouse monoclonal antibody, commercialized by Santa Cruz Biotechnology, Inc., Texas, USA, or “ZO1-1A12”, a product name of a ZO-1 mouse monoclonal antibody, commercialized by Invitrogen Corporation, Calif., USA, was used as a first antibody; and “PO447”, a product name of a horseradish peroxidase (HRPO) labeled anti-mouse IgG, commercialized by DAKO Japan Inc., Tokyo, Japan, or “PO448”, a product name of an HRPO-labeled anti-rabbit IgG, commercialized by DAKO Japan Inc., Tokyo, Japan, as a secondary antibody. […]

The subject of data set [2] is ZO-1. The experiment in a line: TJ-related protein ZO-1 in NHEK cells (Western). The class given is cell-based, human. Conditions: 1 mM, 3 days, CaCl2 positive control = 100%, no addition 38%. As to the method: as §1
The test system of data set [3] is cornified envelope (CE). Nature of the data set: Production of cornified envelope (CE) in NHEK cells. The format is cell-based, human. The conditions noted are these: 1 mM, 5 days, control 0.63 ± 0.07. As to the method: The following experiment was conducted to examine the effect of ascorbic acid 2-glucoside on the production of CE in a keratinous layer. As a model for typical normal human epidermal cells, normal human epidermal keratinocytes from neonatal foreskin, commercialized by Kurabo Industries Ltd., Osaka, Japan, and abbreviated as “NHEK cells”, hereinafter, were suspended in EpiLife medium (pH 7.4), commercialized by Invitrogen Corporation, Calif., USA, and called “EpiLife medium”, hereinafter, inoculated to 12-well microplates at a cell density of 1×10^5 cells/well, and cultured under the conditions of 37° C. and 5% v/v CO2 overnight. Thereafter, “AA2G”, a product name of a particulate composition containing anhydrous crystalline ascorbic acid 2-glucoside, commercialized by Hayashibara Co., Ltd., Okayama, Japan, was added to each well to give a final concentration of 0.5 or 1 mM, or, as a positive control, CaCl2 was added to each well to give a final concentration of 1 mM; and the cells in each well were cultured at 37° C. for five days while replacing the medium in each well with a fresh preparation of EpiLife medium having the above-identified concentration of ascorbic acid 2-glucoside or CaCl2. Assay for intracellular CE content was carried out in accordance with Tatsuya Hasegawa et al., “Lipids”, Vol. 46, pp. 529 to 535, 2011. After completion of the culture, the culture supernatant in each well was immediately removed, followed by detaching and extracting the cells adhered to the wall of each well by means of pipetting with phosphate buffered saline (PBS, pH 7.4) containing 2% w/v sodium dodecyl sulfate (SDS), and collecting insoluble fractions by centrifugation at 15,000 rpm for 10 min. […] The measured values were regarded as CE production levels. […]

Data set [4] relates to A431 cells. The experiment in a line: Cytotoxicity in A431 cell culture. The class given is cell-based, human. Conditions: D-MEM medium, 24 h.
Data set [5] relates to glutathione. The experiment in a line: Production level of glutathione in A431 cells. The class given is cell-based, human. Conditions: 0.1 mM, 24 h, control = 100%. As to the method: To Dulbecco's MEM medium, containing 10% v/v calf fetal serum and an antibiotic (abbreviated as “D-MEM”, hereinafter), were added ascorbic acid 2-glucoside, a reagent grade specimen commercialized by Hayashibara Co., Ltd., Okayama, Japan, or L-ascorbic acid, a special reagent grade specimen commercialized by Wako Pure Chemical Industries, Ltd., Tokyo, Japan, […]
Continuously-cultivated A431 cells in D-MEM medium were collected, resuspended in D-MEM medium, inoculated to culture plates with 10 cm in diameter (φ) in an amount of 1×10^6 cells/10 mL/plate, and cultured for 24 hours. Thereafter, the culture supernatants were removed by sucking, and the remaining cells were added with any of the test solutions in an amount of 10 mL/plate and cultured for another 24 hours. As a control, cells were added with only D-MEM medium in an amount of 10 mL/plate and cultured for 24 hours. To each plate, which had been removed its culture supernatant, was added ice-chilled Dulbecco's PBS (−) commercialized by Nissui Pharmaceutical Co., Ltd., Tokyo, Japan, to wash cells, which were then collected with a scraper. Glutathione was quantified with “Glutathione Assay Kit”, a commercially available glutathione assay kit commercialized by BioVision, Inc., San Francisco, USA. In this experiment, the control and test solutions were respectively assayed by using three plates respectively, and the data were averaged for obtaining a glutathione production level for each plate. A5% v/v CO2 incubator was used for culturing A431 cells in any case. Relative values of test samples were determined with the proviso that the production levels of reduced glutathione and total glutathione levels in A431 cells that had been cultured with only D-MEM medium were respectively regarded as 100%, and the results are in Table 4.

The test system of data set [6] is B16 cells. Nature of the data set: Cytotoxicity in B16 cell culture. The format is cell-based, mouse. Conditions: D-MEM medium, 2.0 mM, 2 h.
The subject of data set [7] is NHEK cells. The experiment in a line: Cytotoxicity in NHEK cell culture. The class given is cell-based, human. The conditions noted are these: EpiLife medium, 24 h.
In data set [8] the test system is glutathione. Nature of the data set: Production level of glutathione in NHEK cells. The class given is cell-based, human. Conditions: 0.1 mM, 24 h, control = 100%. The protocol: Continuously-cultivated NHEK cells in EpiLife medium were collected, resuspended in EpiLife medium, inoculated to culture plates with 10 cm in diameter in an amount of 1×10^6 cells/10 mL/plate, and cultured for 24 hours. Thereafter, each culture supernatant was removed by sucking, and any of the test solutions was added to the remaining cells in a volume of 10 mL/plate, followed by culturing the cells for another 24 hours. As a control, cells were added with only D-MEM medium in an amount of 10 mL/plate and cultured for 24 hours. Each culture supernatant was removed from each plate, then ice-chilled Dulbecco's PBS (−), commercialized by Nissui Pharmaceutical Co., Ltd., Tokyo, Japan, was added to rinse the remaining cells, which were then collected with a scraper. Glutathione was quantified on “Glutathione Assay Kit”, a product name of glutathione assay kit commercialzied by BioVision, Inc., San Francisco, USA. In this experiment, the control and test solutions in respective three plates were assayed for glutathione production level for each plate and averaged for obtaining the glutathione production level of each solution. A 5% v/v CO2 incubator was used for culturing NHEK cells in any case. Relative values of test samples were determined with the proviso that the production levels of reduced glutathione and total glutathione in NHEK cells that had been cultured with only EpiLife medium were respectively regarded as 100%, and the results are in Table 5.

SMILES strings stand for the structures.

Regarding `[Ca+2].[Cl-].[Cl-]` [CaCl2, reference compound], the “Occludin concentration in cell extract” value in data set [1] amounted to 100%. Also, the “ZO-1 Concentration in cell extract” value in data set [2] is on record as 100%. For the same compound, the “OD310nm Value (CE Production level)” value in data set [3] amounted to 1.07 ± 0.07.
Consider `O=C1O[C@H]([C@@H](O)CO)C(O)=C1O` [L-ascorbic acid], for which the cytotoxicity result in data set [4] (1.0 mM) is given as “cytotoxicity was induced”; in data set [6], “induced cytotoxicity”; in data set [7] (0.5 mM), “cytotoxicity induced”. Besides, the “upper limit concentration that does not induce cytotoxicity” value in data set [4] and in data set [7] was 0.1 mM in each case. In addition, the Reduced glutathione in data set [5] was found to be 103%; in data set [8] it was 102%. In addition, the Total glutathione was 102% in data set [5] and 103% in data set [8].

Values taken from US10111822B2, “External dermal composition for anti-ageing and method for producing the same” (Hayashibara Co., Ltd., priority 2012, dated 2018).
